In patent publication US20230110128A1, “USE OF ANTIBODY DRUG CONJUGATES COMPRISING TUBULIN DISRUPTING AGENTS TO TREAT SOLID TUMOR” (Seagen Inc., priority 2018, published 2023):

Legend:
MCF7 breast cancer cells = experiment: Western blot analysis of ER stress response in MCF7 cells; assay type: cell-based; conditions: FIG. 16A
Description: MCF7 breast cancer cells were treated with 100 nM MMAE for 16 hours and harvested RIPA buffer for western blot analysis.
MCF7 cells were treated with MMAE or an MMAE-containing ADC (SGN-LIV1A) for 16 hours and harvested in […] for western bot analysis. […] Induction of ICD is also characterized by the secretion of ATP and HMGB1. Extracellular ATP serves as a strong chemotactic signal, promoting immune cell migration to the tumor site. Upon arrival, extracellular HMGB1 signals through various pro-inflammatory receptors (TLR2, TLR4, RAGE) to activate antigen-presenting cells, thereby promoting immune activity within the tumor.

MCF7 cells = experiment: ATP secretion from MCF7 cells; assay type: cell-based; conditions: after 48 hours of treatment
[1] = system: HeLa cervical cancer cells; experiment: Western blot analysis of ER stress in HeLa cells; assay type: cell-based; conditions: 1000 nM or 100 nM, 16 hours
Description: HeLa cervical cancer cells were treated with 1000 nM or 100 nM MMAE, Vincristine, or Paclitaxel for 16 hours and harvested for western blot analysis.

[2] = system: BxPC3 and HPAFII (pancreas) cells co-cultured with macrophages; experiment: Macrophage antigen presentation after co-culture with treated pancreas tumor cells; assay type: cell-based; conditions: BxPC3 and HPAFII treated 24 hours; macrophages harvested 4 days after co-culture
Description: Macrophages were enriched from PBMCs from 2 healthy donors by adhering PBMCs to cell culture-grade plastic. Non-adherent cells were removed 24 hours later, leaving a population of cells enriched for macrophages.
BxPC3 and HPAFII (pancreas) cells were treated with MMAE, vincristine, and Paclitaxel for 24 hours. Cells were washed and harvested, and subsequently co-cultured with the enriched macrophages prepared above. Macrophages were harvested 4 days after co-culture and assayed for immune activation by flow cytometry. Level of antigen-presentation (as measured by frequency of MHCII-expressing cells) was quantified and normalized to macrophages that were co-cultured with untreated tumor cells.

[3] = system: A2058, SK-MEL-5, SK-MEL-28, Calu-1, HT-1080, SK-MES-1, BXPC3 and HPAFII cells; experiment: HMGB1 release by ELISA in a panel of solid tumor cell lines; assay type: cell-based; conditions: supernatant after one night of treatment
Description: A2058, SK-MEL-5, SK-MEL-28 (skin), Calu-1, HT-1080, SK-MES-1 (lung), and BXPC3 and HPAFII (pancreas) cells were treated with an MMAE-containing ADC (e.g., anti-p97-MMAE or anti-CD71-MMAE) or Paclitaxel. Supernatant was collected after one night of treatment, and analyzed for HMGB1 release by ELISA. […] See, e.g., FIG. 70 and additional description below.

MiaPaca2 cells = experiment: ATP secretion from MiaPaca2 cells; assay type: cell-based; conditions: supernatant after 16 hours
Description: MiaPaca2 cells were treated with MMAE, Vincristine, or Paclitaxel. Supernatant was collected after 16 hours of treatment, and analyzed for ATP secretion.

[4] = system: A2058, SK-MEL-5, SK-MEL-28 (skin) cell lines; experiment: ATP secretion in skin cell lines; assay type: cell-based; conditions: A2058, SK-MEL-5, SK-MEL-28, after 17 hours
Description: (§1) Skin tumor lines A2058, SK-MEL-5 and SK-MEL-28, Calu-1 (lung), HT-1080 (fibrosarcoma), SK-MES-1 (lung), and BXPC3 (pancreas) cells were treated with MMAE, vincristine, and Paclitaxel. Supernatant was collected after 17 hours of treatment, and analyzed for ATP secretion.

BxPC-3 cells = experiment: ATP secretion from BxPC-3 cells; assay type: cell-based; conditions: 17 hours
[5] = system: MiaPaca-CHOP-luciferase cells; experiment: CHOP-driven luciferase reporter assay of severe ER stress; assay type: cell-based; conditions: after 16 hours
Description: Severe ER stress leads to upregulation of CHOP, and initiates mitochondrial apoptosis. MiaPaca2 pancreatic tumor cells were engineered to express a CHOP-driven luciferase reporter system (purchased from Signosis, Inc.) that allows for quantifiable monitoring of severe ER stress. MiaPaca-CHOP-luciferase cells were treated with MMAE, vincristine, and Paclitaxel, and assayed for luciferase expression after 16 hours.

[6] = system: PC-3 prostate tumor cells; experiment: ATP secretion from PC-3 cells; assay type: cell-based; conditions: supernatant after 16 hours
Description: PC-3 prostate tumor cells were also treated with MMAE, Vincristine, or Paclitaxel. Supernatant was collected after 16 hours of treatment, and analyzed for ATP secretion. […] PC-3 cells were treated for 24 hours with an MMAE-containing ADC (SGN-LIV1A) or MMAE and harvested in RIPA buffer for western blot analysis (FIG. 3C).

[7] = system: MiaPaca-CHOP-luciferase cells subcutaneously engrafted; experiment: Tumoral CHOP luciferase signal in engrafted MiaPaca-CHOP-luciferase tumors; assay type: in vivo, NOD/SCID/gamma-chain deficient mice; conditions: intratumorally; MMAE 0.36 mg/kg, vincristine 1.0 mg/kg, Paclitaxel 10 mg/kg
Description: MiaPaca-CHOP-luciferase cells were subcutaneously engrafted into NOD/SCID/gamma-chain deficient mice. Subcutaneous tumors were treated intratumorally with MMAE (0.36 mg/kg), vincristine (1.0 mg/kg), and Paclitaxel (10 mg/kg) and tumoral luciferase signal was monitored over time.

[8] = system: Hep3b, Huh7, and JHH7 cells; experiment: ATP secretion from liver tumor lines; assay type: cell-based; conditions: Huh7, JHH7, 24 hours
Description: (§2) Liver tumor lines Hep3b, Huh7, and JHH7 cells were treated with MMAE, Tubulysin M, vincristine, and Paclitaxel for 24 hours and analyzed for ATP secretion. […] Cells were washed and harvested, and subsequently co-cultured with enriched macrophages prepared as above. Macrophages were harvested 4 days after co-culture and assayed for immune activation by flow cytometry. Levels of costimulation (as measured by CD86 expression, JHH7) and antigen-presentation (as measured by frequency of MHCII-expressing cells, Hep3b, Huh7, and JHH7) were quantified and normalized to macrophages that were co-cultured with […]. […] Supernatant from the co-culture of macrophages and dying liver tumor cells was harvested 24 hours later and assayed for levels of cytokine and chemokine production by ELISA and normalized to macrophages that were co-cultured with untreated tumor cells.

[9] = system: Hep3b, Huh7, and JHH7 cells co-cultured with macrophages; experiment: Cytokine and chemokine production in macrophage co-culture with treated liver tumor cells; assay type: cell-based; conditions: Huh7, JHH7 co-culture supernatant 24 hours, ELISA, normalized to untreated
Description: as §2

[10] = system: A2058, SK-MEL-5, SK-MEL-28, Calu-1, HT-1080, SK-MES-1 and BXPC3 cells; experiment: ATP secretion in a panel of solid tumor cell lines; assay type: cell-based; conditions: 7 cell lines, supernatant after 17 hours
Description: as §1

[11] = system: T-24 cells co-cultured with macrophages; experiment: Macrophage antigen presentation after co-culture with treated T-24 cells; assay type: cell-based; conditions: T-24 treated 24 hours; macrophages harvested 4 days after co-culture
Description: (§3) T-24 (bladder) cells were treated with MMAE or an MMAE-containing ADC (ASG-22ME) for 48 hours and analyzed for ATP secretion. […] T-24 cells were also treated with MMAE, an MMAE-containing ADC (ASG22ME, Enfortumab vedotin), vincristine, and Paclitaxel for 24 hours. Cells were washed and harvested, and subsequently co-cultured with the enriched macrophages as above. Macrophages were harvested 4 days after co-culture and assayed for immune activation by flow cytometry. Level of antigen-presentation (as measured by frequency of MHCII-expressing macrophages) was quantified and normalized to macrophages that were co-cultured with untreated tumor cells. […] Supernatant from the co-culture of macrophages and dying T-24 tumor cells was harvested after 24 hours and assayed for levels of cytokine and chemokine production by ELISA and normalized to macrophages that were co-cultured with untreated tumor cells.

T-24 (bladder) cells = experiment: ATP secretion from T-24 cells; assay type: cell-based; conditions: 48 hours
Description: as §3

MDA-MB-468 cells = experiment: ATP secretion from MDA-MB-468 cells; assay type: cell-based; conditions: supernatant after 48 hours
Description: MDA-MB-468 cells were treated with MMAE or an MMAE-containing ADC (ASG-22ME). Supernatant was collected after 48 hours of treatment, and analyzed for ATP secretion.

[12] = system: T-24 tumor cells co-cultured with macrophages; experiment: Cytokine and chemokine production in macrophage co-culture with treated T-24 cells; assay type: cell-based; conditions: T-24 co-culture supernatant after 24 hours, ELISA, normalized to untreated
Description: as §3

## CC(=O)O[C@@]12CO[C@@H]1C[C@H](O)[C@@]1(C)C(=O)[C@H](O)C3=C(C)[C@@H](OC(=O)[C@H](O)[C@@H](NC(=O)OC(C)(C)C)c4ccccc4)C[C@@](O)([C@@H](OC(=O)c4ccccc4)[C@H]21)C3(C)C [Docetaxel, docetaxel, reference compound]
MCF7 breast cancer cells
  Severe ER stress (phosphorylation of IRE1 and JNK): do not elicit JNK phosphorylation
MCF7 cells
  ATP secretion: neither Paclitaxel nor Docetaxel elicited ATP secretion

## CC(=O)O[C@H]1C(=O)[C@@]2(C)[C@H]([C@H](OC(=O)c3ccccc3)[C@]3(O)C[C@H](OC(=O)[C@H](O)[C@@H](NC(=O)c4ccccc4)c4ccccc4)C(C)=C1C3(C)C)[C@]1(OC(C)=O)CO[C@@H]1C[C@@H]2O [Paclitaxel, paclitaxel]
[1]
  ER stress responses (phosphorylation of IRE1): activated ER stress responses
  Severe ER stress response (phosphorylation of JNK): Robust JNK phosphorylation was not seen with lower doses
MCF7 breast cancer cells
  Severe ER stress (phosphorylation of IRE1 and JNK): do not elicit JNK phosphorylation
MCF7 cells
  ATP secretion: neither Paclitaxel nor Docetaxel elicited ATP secretion
[2]
  Antigen-presentation (frequency of MHCII-expressing cells): did not lead to changes in macrophage antigen-presentation
[3]
  HMGB1 release (cell lines responding): HMGB1 release in most of the cell lines assayed (5/7)
MiaPaca2 cells
  ATP secretion: modest ATP secretion
[4]
  ATP secretion (skin cell lines responding): ATP secretion from only 1 of 3 cell lines
BxPC-3 cells
  ATP secretion: equivalent levels of ATP secretion
[5]
  Luciferase signal as a proxy of severe ER stress induction: modest luciferase signal at the peak doses
[6]
  ATP secretion: modest ATP secretion
[7]
  Severe ER stress in engrafted tumors (tumoral luciferase signal over time): does not induce ER stress

## CC[C@H](C)[C@H](NC(=O)[C@H]1CCCCN1C)C(=O)N(C)[C@H](C[C@@H](OC(C)=O)c1nc(C(=O)N[C@@H](Cc2ccccc2)C[C@H](C)C(=O)O)cs1)C(C)C [Tubulysin M, tubulysin M, reference compound]
[8]
  ATP secretion (cell lines responding): potent ATP secretion from 3 of 3 cell lines evaluated
[9]
  Cytokine and chemokine production: increase of the indicated cytokines and chemokines that was more robust than treatment with Paclitaxel

## C=C1C[C@@H]2CC[C@@]34C[C@H]5O[C@H]6[C@@H](O3)[C@H]3O[C@H](CC[C@@H]3O[C@H]6[C@H]5O4)CC(=O)C[C@@H]3[C@@H](OC)[C@@H](C[C@H](O)CN)O[C@H]3C[C@H]3O[C@@H](CC[C@@H]1O2)C[C@@H](C)C3=C [eribulin, reference compound]
MCF7 breast cancer cells
  Severe ER stress (phosphorylation of IRE1 and JNK): elicits severe ER stress (phosphorylation of IRE1 and JNK)
MCF7 cells
  ATP secretion: Increased AIR secretion

## CC[C@]1(O)C[C@H]2CN(CCc3c([nH]c4ccccc34)[C@@](C(=O)OC)(c3cc4c(cc3OC)N(C=O)[C@H]3[C@@](O)(C(=O)OC)[C@H](OC(C)=O)[C@]5(CC)C=CCN6CC[C@]43[C@@H]65)C2)C1 [vincristine]
[1]
  ER stress responses (phosphorylation of IRE1): activated ER stress responses
[2]
  Antigen-presentation (frequency of MHCII-expressing cells): increase in antigen-presentation in 1/2 tumor cell lines
[10]
  ATP secretion (cell lines responding): ATP secretion in most of the cell lines assayed (6/7)
  ATP secretion response compared with Paclitaxel: more robust response than Paclitaxel in all cell lines assayed
BxPC-3 cells
  ATP secretion: equivalent levels of ATP secretion
[5]
  Luciferase signal as a proxy of severe ER stress induction: dose-dependent increase in luciferase signal
[6]
  ATP secretion: robust ATP secretion
[7]
  Severe ER stress in engrafted tumors (tumoral luciferase signal over time): rapidly elicited severe ER stress

## ASG-22ME
[11]
  Macrophage antigen presentation (frequency of MHCII-expressing macrophages): increase in macrophage antigen presentation that was more robust than treatment with Paclitaxel
T-24 (bladder) cells
  ATP secretion: potent ATP secretion
MDA-MB-468 cells
  ATP secretion: robust ATP secretion that was comparable to thapsigargin
[12]
  Cytokine and chemokine production: increase of the indicated cytokines and chemokines that was more robust than treatment with Paclitaxel
